What was measured:
Assay in all cases: Ray2010 Assay 74
[1] = molecular target: T1, Alpha-2A adrenergic receptor (Homo sapiens, UniProt P08913)
T1 sequence (P08913 whole entry): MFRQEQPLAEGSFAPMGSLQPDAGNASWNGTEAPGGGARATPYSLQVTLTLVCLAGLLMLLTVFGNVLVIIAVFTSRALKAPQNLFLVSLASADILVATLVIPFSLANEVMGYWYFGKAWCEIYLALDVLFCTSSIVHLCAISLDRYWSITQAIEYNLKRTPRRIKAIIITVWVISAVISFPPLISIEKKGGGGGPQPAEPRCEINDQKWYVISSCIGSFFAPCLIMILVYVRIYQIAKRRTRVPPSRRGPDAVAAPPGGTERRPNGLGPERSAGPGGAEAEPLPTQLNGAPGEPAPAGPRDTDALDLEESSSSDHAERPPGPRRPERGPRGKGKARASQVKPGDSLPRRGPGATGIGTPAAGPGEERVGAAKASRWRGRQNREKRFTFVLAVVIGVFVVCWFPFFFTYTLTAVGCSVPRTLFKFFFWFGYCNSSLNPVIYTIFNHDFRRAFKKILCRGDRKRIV
Text: (§1) Table S2 shows raw Ki data for the current study combined with data collected from the literature for the ten additional compounds.

[2] = molecular target: T2, Gamma-aminobutyric acid receptor subunit alpha-1/Adenosine receptor A1 (Homo sapiens, UniProt P14867+P30542)
T2 sequence (P30542 whole entry): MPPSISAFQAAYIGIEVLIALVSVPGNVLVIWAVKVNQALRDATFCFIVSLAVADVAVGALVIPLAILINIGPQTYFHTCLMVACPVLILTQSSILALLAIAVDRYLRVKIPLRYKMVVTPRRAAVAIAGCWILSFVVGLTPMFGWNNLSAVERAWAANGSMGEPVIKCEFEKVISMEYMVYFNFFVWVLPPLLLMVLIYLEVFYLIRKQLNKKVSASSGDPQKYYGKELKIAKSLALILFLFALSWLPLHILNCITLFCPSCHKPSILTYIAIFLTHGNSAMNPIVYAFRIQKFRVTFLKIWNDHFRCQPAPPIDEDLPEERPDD
T2 sequence (P14867 whole entry): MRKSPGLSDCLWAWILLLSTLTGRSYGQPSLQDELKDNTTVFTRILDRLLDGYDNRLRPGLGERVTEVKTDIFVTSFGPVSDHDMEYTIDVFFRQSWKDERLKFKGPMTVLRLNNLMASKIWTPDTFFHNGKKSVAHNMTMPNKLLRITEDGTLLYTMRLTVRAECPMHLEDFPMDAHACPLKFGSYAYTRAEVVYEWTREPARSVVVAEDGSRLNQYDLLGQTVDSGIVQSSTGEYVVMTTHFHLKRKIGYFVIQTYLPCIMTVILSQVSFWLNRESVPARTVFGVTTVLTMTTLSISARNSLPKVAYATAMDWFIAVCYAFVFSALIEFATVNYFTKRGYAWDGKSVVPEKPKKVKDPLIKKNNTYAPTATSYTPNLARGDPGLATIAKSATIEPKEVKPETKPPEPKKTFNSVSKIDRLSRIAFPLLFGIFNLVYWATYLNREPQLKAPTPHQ
Text: as §1

[3] = molecular target: Histamine H3 receptor (Homo sapiens, UniProt Q9Y5N1)
Chain of Histamine H3 receptor (Q9Y5N1 whole entry): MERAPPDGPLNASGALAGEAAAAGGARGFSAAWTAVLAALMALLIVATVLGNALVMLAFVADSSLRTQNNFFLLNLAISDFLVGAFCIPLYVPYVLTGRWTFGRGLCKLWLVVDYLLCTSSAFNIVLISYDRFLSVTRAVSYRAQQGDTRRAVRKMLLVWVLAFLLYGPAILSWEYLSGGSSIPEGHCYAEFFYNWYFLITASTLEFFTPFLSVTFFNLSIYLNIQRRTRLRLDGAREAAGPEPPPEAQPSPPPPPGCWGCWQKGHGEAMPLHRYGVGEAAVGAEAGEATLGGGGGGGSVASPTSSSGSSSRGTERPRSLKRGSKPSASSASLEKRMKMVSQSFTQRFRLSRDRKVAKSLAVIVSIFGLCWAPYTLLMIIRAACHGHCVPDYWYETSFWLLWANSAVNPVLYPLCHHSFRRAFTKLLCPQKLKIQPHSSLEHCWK
Text: as §1

[4] = molecular target: Kappa-type opioid receptor (Homo sapiens, UniProt P41145)
Chain of Kappa-type opioid receptor (P41145 whole entry): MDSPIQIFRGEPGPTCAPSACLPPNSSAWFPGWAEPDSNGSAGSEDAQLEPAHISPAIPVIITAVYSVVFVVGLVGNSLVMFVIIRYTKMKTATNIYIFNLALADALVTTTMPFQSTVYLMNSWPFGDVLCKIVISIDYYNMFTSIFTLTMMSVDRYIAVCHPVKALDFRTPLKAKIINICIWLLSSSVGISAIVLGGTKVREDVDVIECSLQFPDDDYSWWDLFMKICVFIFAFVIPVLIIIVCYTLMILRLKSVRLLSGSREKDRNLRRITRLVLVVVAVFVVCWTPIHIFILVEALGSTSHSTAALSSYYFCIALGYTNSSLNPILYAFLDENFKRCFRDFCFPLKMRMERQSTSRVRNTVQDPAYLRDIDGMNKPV
Text: as §1

[5] = molecular target: Muscarinic acetylcholine receptor M3 (Homo sapiens, UniProt P20309)
Chain of Muscarinic acetylcholine receptor M3 (P20309 whole entry): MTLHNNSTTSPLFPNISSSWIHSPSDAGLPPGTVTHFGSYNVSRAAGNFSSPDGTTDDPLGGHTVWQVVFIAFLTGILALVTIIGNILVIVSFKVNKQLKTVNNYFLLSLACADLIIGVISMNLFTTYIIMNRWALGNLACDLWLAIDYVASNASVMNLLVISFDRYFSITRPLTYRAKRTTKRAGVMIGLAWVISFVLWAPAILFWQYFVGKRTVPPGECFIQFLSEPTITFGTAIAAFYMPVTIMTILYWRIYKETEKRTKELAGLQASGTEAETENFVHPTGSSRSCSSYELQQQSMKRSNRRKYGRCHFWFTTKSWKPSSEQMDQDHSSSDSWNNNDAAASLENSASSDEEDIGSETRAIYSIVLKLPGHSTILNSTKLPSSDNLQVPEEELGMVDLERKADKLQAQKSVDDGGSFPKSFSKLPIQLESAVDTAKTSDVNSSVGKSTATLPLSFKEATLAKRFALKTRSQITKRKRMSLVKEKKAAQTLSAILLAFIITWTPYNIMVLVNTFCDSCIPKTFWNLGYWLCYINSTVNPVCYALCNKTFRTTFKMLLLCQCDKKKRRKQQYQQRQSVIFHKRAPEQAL
Text: as §1

[6] = molecular target: T3, Muscarinic acetylcholine receptor M4 (Homo sapiens, UniProt P08173)
T3 sequence (P08173 whole entry): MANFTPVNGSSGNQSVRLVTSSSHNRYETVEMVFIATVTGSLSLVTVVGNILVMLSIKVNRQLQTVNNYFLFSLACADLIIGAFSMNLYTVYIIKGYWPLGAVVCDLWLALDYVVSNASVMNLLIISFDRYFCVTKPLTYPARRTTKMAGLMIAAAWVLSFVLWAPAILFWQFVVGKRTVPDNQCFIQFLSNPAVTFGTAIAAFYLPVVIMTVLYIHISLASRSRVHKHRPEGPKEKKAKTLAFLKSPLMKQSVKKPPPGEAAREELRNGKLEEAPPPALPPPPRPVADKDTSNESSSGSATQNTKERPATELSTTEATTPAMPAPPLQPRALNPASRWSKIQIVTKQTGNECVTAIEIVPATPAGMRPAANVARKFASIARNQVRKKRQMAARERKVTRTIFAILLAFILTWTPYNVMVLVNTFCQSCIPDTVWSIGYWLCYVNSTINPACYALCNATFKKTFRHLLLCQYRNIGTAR
Text: as §1

[7] = molecular target: T4, Prostaglandin E2 receptor EP3 subtype (Homo sapiens, UniProt P43115)
T4 sequence (P43115 whole entry): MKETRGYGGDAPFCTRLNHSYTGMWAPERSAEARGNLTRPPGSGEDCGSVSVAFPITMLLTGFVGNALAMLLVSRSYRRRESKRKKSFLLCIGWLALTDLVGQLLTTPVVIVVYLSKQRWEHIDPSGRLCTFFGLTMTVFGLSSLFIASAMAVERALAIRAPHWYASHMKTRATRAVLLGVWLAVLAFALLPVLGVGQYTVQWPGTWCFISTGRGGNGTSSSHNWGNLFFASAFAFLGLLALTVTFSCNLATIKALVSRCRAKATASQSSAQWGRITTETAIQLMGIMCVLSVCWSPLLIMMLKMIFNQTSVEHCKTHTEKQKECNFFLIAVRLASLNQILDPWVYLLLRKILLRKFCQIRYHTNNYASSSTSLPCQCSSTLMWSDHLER
Text: as §1

[8] = molecular target: Sigma intracellular receptor 2 (Homo sapiens, UniProt Q5BJF2)
Chain of Sigma intracellular receptor 2 (Q5BJF2 whole entry): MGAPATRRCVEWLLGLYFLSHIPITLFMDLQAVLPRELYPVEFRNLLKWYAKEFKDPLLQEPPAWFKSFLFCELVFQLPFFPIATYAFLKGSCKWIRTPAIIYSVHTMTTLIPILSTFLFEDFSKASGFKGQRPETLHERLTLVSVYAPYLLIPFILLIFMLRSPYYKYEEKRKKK
Text: as §1

[9] = molecular target: Sigma non-opioid intracellular receptor 1 (Homo sapiens, UniProt Q99720)
Chain of Sigma non-opioid intracellular receptor 1 (Q99720 whole entry): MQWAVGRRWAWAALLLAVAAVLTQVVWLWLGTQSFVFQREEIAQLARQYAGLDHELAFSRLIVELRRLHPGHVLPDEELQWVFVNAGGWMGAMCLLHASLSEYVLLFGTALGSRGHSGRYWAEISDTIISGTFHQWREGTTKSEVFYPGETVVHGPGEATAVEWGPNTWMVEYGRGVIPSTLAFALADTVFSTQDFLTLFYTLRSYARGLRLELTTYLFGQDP
Text: as §1

[10] = molecular target: Vasopressin V1a receptor (Homo sapiens, UniProt P37288)
Chain of Vasopressin V1a receptor (P37288 whole entry): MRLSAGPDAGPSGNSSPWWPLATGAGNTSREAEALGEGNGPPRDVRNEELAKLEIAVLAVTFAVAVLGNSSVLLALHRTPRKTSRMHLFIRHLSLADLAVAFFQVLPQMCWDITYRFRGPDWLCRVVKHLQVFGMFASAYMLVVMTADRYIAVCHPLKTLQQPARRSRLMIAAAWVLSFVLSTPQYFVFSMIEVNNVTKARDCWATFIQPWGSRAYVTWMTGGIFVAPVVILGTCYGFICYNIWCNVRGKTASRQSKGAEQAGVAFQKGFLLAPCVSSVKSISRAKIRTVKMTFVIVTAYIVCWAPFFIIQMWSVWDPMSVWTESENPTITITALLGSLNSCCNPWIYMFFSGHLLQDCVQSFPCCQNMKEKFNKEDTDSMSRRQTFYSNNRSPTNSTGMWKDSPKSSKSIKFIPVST
Text: as §1

[11] = molecular target: Voltage-dependent calcium channel subunit alpha-2/delta-1 (Homo sapiens, UniProt P54289)
Chain of Voltage-dependent calcium channel subunit alpha-2/delta-1 (P54289 25-956 limits assumed): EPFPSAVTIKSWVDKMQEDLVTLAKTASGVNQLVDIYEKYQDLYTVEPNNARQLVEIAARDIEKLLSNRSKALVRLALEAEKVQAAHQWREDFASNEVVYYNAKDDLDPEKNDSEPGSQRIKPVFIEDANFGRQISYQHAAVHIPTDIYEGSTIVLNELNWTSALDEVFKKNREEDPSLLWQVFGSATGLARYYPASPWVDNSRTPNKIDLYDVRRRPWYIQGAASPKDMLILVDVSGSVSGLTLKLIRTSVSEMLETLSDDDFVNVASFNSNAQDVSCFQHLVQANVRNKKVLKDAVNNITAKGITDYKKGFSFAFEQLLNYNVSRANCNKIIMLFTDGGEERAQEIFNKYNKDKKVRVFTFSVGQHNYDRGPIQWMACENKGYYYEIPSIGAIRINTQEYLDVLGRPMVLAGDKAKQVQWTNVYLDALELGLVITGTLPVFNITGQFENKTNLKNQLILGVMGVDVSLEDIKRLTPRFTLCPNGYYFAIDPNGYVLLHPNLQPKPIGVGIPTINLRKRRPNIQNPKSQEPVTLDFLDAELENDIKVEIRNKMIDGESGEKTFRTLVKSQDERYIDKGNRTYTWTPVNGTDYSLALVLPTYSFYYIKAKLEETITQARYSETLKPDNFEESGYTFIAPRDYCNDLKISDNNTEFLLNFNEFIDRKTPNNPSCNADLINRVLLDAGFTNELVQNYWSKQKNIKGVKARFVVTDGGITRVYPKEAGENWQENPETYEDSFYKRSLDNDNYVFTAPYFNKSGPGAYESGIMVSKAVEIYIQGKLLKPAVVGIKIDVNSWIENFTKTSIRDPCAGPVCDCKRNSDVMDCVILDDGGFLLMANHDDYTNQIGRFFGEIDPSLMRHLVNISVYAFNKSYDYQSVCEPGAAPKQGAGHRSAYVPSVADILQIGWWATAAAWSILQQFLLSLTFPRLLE
Chain of Voltage-dependent calcium channel subunit alpha-2/delta-1 (P54289 957-1103 limits assumed): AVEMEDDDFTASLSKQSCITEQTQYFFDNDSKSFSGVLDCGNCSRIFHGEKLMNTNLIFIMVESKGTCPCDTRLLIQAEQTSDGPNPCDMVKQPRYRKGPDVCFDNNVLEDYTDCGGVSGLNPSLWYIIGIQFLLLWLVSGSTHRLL
Text: as §1

Molecule	Ki [1] [µM]	Ki [2] [µM]	Ki [3] [µM]	Ki [4] [µM]	Ki [5] [µM]	Ki [6] [µM]	Ki [7] [µM]	Ki [8] [µM]	Ki [9] [µM]	Ki [10] [µM]	Ki [11] [µM]
CC(N)Cc1ccc2c(c1)OCO2 (centres undefined)	1.66	> 10	> 10	> 10	–	–	–	–	–	–	–
CCOc1cc(OC)c(CC(C)N)cc1OC (centres undefined)	> 10	> 10	> 10	> 10	> 10	> 10	> 10	> 10	5.08	> 10	> 10
COc1cc(CC(C)N)cc(OC)c1OC (centres undefined)	2.07	–	> 10	> 10	–	–	–	0.536	0.536	–	–
COc1cc(CCN)c(OC)cc1Br	0.309	> 10	> 10	> 10	0.822	> 10	> 10	> 10	> 10	> 10	–
CC[C@H]1C[C@@H]2C[C@H]3c4[nH]c5ccc(OC)cc5c4CCN(C2)[C@@H]13	–	–	–	–	12.5	–	–	0.206	5.84	–	–
CCc1cc(OC)c(CC(C)N)cc1OC (centres undefined)	1.28	–	> 10	> 10	–	–	–	9.56	9.78	–	–
CCSc1cc(OC)c(CC(N)CC)cc1OC (centres undefined) [1-(4-Ethylsulfanyl-2,5-dimethoxy-benzyl)-propylamine]	> 10	> 10	> 10	> 10	> 10	> 10	> 10	> 10	0.515	> 10	> 10
CN(C)CCc1c[nH]c2ccccc12 [2-(1H-indol-3-yl)-N,N-dimethylethanamine]	1.56	> 10	> 10	> 10	> 10	> 10	–	> 10	5.21	–	> 10
CCc1cc(OC)c(CCN)cc1OC [2-(2,5-dimethoxy-4-ethylphenyl)ethylamine]	0.49	> 10	> 10	> 10	2.56	> 10	> 10	> 10	–	> 10	> 10
COc1cc(CC(C)N)c(OC)cc1Br (stereo not drawn) [2-(4-Bromo-2,5-dimethoxy-phenyl)-1-methyl-ethylamine((-)-DOB)]	4.27	> 10	–	> 10	1.15	> 10	> 10	> 10	2.19	> 10	> 10
NCCc1c2c(c(Br)c3c1OCC3)OCC2 [2-(8-Bromo-2,3,6,7-tetrahydro-benzo[1,2-b;4,5-b']difuran-4-yl)-ethylamine]	0.145	–	> 10	> 10	0.339	0.52	–	> 10	> 10	–	–
CCc1[nH]c2ccc(OC)cc2c1CCN(C)C [2-ethyl-5-methoxy-N,N-dimethyltryptamine]	–	–	> 10	> 10	> 10	> 10	–	–	–	> 10	–
COC(=O)[C@@H]1C[C@H](OC(C)=O)C(=O)[C@H]2[C@@]1(C)CC[C@H]1C(=O)O[C@H](c3ccoc3)C[C@]21C [2S,4aR,6a(R,7R,9S,10aS,10bR)-9-(acetyloxy)-2-(furan-3-yl)dodecahydro-6a,10b-dimethyl-4,10-dioxo-2H-naphtho[2,1-c]pyran-7-carboxylic acid methyl ester]	–	–	–	–	> 10	> 10	–	–	–	–	–
COc1ccc2[nH]cc(CCN(C)C)c2c1 [3-(2-DIMETHYLAMINOETHYL)-5-METHOXYINDOLE]	1.89	> 10	–	> 10	> 10	> 10	–	> 10	> 10	–	> 10
CN(C)CCc1c[nH]c2cccc(O)c12 [4-hydroxy-N,N-dimethyltryptamine]	–	> 10	> 10	> 10	> 10	> 10	–	> 10	> 10	–	> 10
COc1cc(OC)c(OC)cc1CC(C)N (stereo not drawn) [(+/-)1-Methyl-2-(2,4,5-trimethoxy-phenyl)-ethylamine]	> 10	–	> 10	–	–	–	–	–	–	–	–
COc1cc(CC(C)N)c(OC)cc1C (stereo not drawn) [(+/-)2-(2,5-Dimethoxy-4-methyl-phenyl)-1-methyl-ethylamine]	0.58	–	> 10	> 10	–	–	–	> 10	> 10	–	–
COc1ccc2[nH]c(C)c(CCN(C)C)c2c1 [[2-(5-Methoxy-2-methyl-1H-indol-3-yl)-ethyl]-dimethyl-amine (C2H2O)]	–	–	> 10	> 10	> 10	> 10	–	–	–	> 10	–
CCN(CC)C(=O)[C@@H]1C=C2c3cccc4[nH]cc(c34)C[C@H]2N(C)C1 [[N-methyl-3H]LSD]	–	–	–	> 10	–	–	–	–	–	> 10	–
C[C@@H]1C[C@H](C)N1C(=O)C1C=C2c3cccc4[nH]cc(c34)C[C@H]2N(C)C1 (stereo partly drawn) [cis-2a]	–	–	–	> 10	–	–	–	–	–	> 10	–
CC(C)N(CCc1c[nH]c2ccccc12)C(C)C [dipt]	> 10	> 10	–	> 10	> 10	> 10	> 10	2.7	1.8	> 10	> 10
CNC(C)Cc1ccc2c(c1)OCO2 (centres undefined) [mdma]	2.53	> 10	–	> 10	–	8.25	> 10	–	–	–	1.2
C[C@@H]1C[C@@H](C)N1C(=O)C1C=C2c3cccc4[nH]cc(c34)C[C@H]2N(C)C1 (some centres undefined) [rr-2b]	–	–	–	> 10	–	–	–	–	–	> 10	–
CAS_82830-44-2::(2R)-1-(4-iodo-2,5-dimethoxyphenyl)propan-2-amine::DOI,(-)::US20250270173, Compound DOI	0.0737	–	> 10	> 10	1.43	0.578	–	9.17	8.56	–	–
